Test results published in publication PMC9516332 (Frontiers in Oncology, 2022).
Where two headings read alike, the source gives them in different places.

Assays:
Assay in all cases: Kinase panel profiling at 1 µmol/L (MSA or IMAP), percentage inhibition
Format in all cases: biochemical
[1] = biological target: panel of 255 wild-type kinases (Homo sapiens, UniProt P49759); settings: kinase CLK1; 1 µmol/L single concentration; read-out: %-inhibition at 1 µmol/L, CLK1
[2] = biological target: panel of 255 wild-type kinases (Homo sapiens, UniProt P06239); settings: read-out: %-inhibition at 1 µmol/L, LCK
[3] = biological target: panel of 255 wild-type kinases (Homo sapiens, UniProt Q9NQU5); settings: PAK6; 1 µmol/L single concentration; read-out: %-inhibition, PAK6
[4] = biological target: T1, panel of 255 wild-type kinases (Homo sapiens, UniProt P51955); settings: NEK2; 1 µmol/L single concentration; read-out: %-inhibition, NEK2
T1 sequence (P51955 1-445): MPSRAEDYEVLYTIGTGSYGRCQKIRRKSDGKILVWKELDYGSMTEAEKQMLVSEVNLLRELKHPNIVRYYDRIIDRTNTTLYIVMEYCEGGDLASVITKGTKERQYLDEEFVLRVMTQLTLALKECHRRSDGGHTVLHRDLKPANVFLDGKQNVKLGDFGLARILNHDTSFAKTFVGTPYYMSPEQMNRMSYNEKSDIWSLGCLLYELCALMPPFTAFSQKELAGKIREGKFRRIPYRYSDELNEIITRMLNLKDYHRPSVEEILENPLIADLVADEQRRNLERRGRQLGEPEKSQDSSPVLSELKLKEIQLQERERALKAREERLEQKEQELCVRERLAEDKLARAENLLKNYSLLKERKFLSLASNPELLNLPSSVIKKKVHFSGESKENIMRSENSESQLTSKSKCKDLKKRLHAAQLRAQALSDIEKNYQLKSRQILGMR

[5] = biological target: panel of 255 wild-type kinases (Homo sapiens, UniProt O75116); settings: kinase ROCK2; 1 µmol/L single concentration; read-out: %-inhibition at 1 µmol/L, ROCK2
[6] = biological target: panel of 255 wild-type kinases (Homo sapiens, UniProt P05771); settings: kinase PKCβ1; 1 µmol/L single concentration; read-out: %-inhibition at 1 µmol/L, PKCβ1
[7] = biological target: panel of 255 wild-type kinases (Homo sapiens, UniProt P19525); settings: kinase PKR; 1 µmol/L single concentration; read-out: %-inhibition at 1 µmol/L, PKR
[8] = biological target: panel of 255 wild-type kinases (Homo sapiens, UniProt P54764); settings: kinase EPHA4; 1 µmol/L single concentration; read-out: %-inhibition at 1 µmol/L, EPHA4
[9] = biological target: panel of 255 wild-type kinases (Homo sapiens, UniProt Q08345); settings: kinase DDR1; 1 µmol/L single concentration; read-out: %-inhibition at 1 µmol/L, DDR1
[10] = biological target: panel of 255 wild-type kinases (Homo sapiens, UniProt Q9UBS0); settings: p70S6Kβ; 1 µmol/L single concentration; read-out: %-inhibition, p70S6Kβ
[11] = biological target: T2, panel of 255 wild-type kinases (Homo sapiens, UniProt O00418); settings: kinase EEF2K; 1 µmol/L single concentration; read-out: %-inhibition at 1 µmol/L, EEF2K
T2 sequence (O00418 1-725): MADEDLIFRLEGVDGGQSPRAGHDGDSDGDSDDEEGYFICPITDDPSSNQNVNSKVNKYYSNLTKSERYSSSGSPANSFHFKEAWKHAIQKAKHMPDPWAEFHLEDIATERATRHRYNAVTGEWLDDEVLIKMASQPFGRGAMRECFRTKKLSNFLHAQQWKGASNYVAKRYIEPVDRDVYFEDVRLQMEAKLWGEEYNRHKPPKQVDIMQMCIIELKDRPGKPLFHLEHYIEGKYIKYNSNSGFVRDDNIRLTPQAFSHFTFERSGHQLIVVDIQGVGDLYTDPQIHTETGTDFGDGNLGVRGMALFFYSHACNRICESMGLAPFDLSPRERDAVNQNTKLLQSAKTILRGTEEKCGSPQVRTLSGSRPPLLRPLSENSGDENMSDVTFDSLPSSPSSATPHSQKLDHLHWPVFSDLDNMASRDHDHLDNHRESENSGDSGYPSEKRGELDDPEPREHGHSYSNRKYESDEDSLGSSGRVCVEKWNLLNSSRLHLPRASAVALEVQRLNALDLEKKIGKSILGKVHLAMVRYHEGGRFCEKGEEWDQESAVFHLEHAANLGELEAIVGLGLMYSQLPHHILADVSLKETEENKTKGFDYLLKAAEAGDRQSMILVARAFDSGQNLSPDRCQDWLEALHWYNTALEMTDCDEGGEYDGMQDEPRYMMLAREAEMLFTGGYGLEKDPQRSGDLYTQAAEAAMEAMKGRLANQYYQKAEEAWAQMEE

[12] = biological target: T3, panel of 255 wild-type kinases (Homo sapiens, UniProt Q9UHD2); settings: kinase TBK1; 1 µmol/L single concentration; read-out: %-inhibition at 1 µmol/L, TBK1
T3 sequence (Q9UHD2 1-729): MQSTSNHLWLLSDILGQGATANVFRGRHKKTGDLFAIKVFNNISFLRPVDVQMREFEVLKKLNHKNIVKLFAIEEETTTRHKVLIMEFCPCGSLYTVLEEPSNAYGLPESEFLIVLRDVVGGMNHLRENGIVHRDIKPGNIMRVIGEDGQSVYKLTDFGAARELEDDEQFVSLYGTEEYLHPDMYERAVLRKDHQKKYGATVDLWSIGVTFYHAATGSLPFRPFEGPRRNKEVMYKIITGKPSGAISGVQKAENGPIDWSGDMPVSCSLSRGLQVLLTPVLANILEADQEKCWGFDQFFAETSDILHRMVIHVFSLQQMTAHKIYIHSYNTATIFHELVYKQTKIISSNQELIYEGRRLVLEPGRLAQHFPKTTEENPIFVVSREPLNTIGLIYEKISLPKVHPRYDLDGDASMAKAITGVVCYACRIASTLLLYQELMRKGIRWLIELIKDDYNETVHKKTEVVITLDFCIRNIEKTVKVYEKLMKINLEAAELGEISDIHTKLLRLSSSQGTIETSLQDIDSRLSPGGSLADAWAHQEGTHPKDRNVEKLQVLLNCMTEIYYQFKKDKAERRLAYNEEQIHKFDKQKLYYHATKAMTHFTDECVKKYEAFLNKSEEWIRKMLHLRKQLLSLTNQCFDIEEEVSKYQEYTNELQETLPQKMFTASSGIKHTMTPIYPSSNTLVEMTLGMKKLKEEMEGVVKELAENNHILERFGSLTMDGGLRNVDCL

[13] = kinase LCK, 1 µmol/L single concentration

O=C(Nc1cnn2ccc(N3CCC[C@@H]3c3cc(F)ccc3F)nc12)N1CC[C@H](O)C1 [larotrectinib]
inhibition at 1 µM [1]: 5.31% | inhibition at 1 µM [2, 13]: 1.14% | inhibition at 1 µM [3]: 13% | inhibition at 1 µM [4]: -0.367% | inhibition at 1 µM [5]: -3.33% | inhibition at 1 µM [6]: -2.11% | inhibition at 1 µM [7]: -2.17% | inhibition at 1 µM [8]: -0.0271% | inhibition at 1 µM [9]: 41% | inhibition at 1 µM [10]: 4.22% | inhibition at 1 µM [11]: -2% | inhibition at 1 µM [12]: 0.0799%

CCN1C(=O)N(c2c(F)c(OC)cc(OC)c2F)Cc2cnc3[nH]c(CN4CCOCC4)cc3c21 [pemigatinib]
inhibition at 1 µM [1]: 5% | inhibition at 1 µM [2, 13]: 17% | inhibition at 1 µM [3]: 12% | inhibition at 1 µM [4]: -2% | inhibition at 1 µM [5]: -5% | inhibition at 1 µM [6]: 0.544% | inhibition at 1 µM [7]: 85% | inhibition at 1 µM [8]: -1.83% | inhibition at 1 µM [9]: 41% | inhibition at 1 µM [10]: -0.851% | inhibition at 1 µM [11]: -3.26% | inhibition at 1 µM [12]: 0%

FC(F)(F)c1ccc(CNc2ccc(Cc3c[nH]c4ncc(Cl)cc34)cn2)cn1 [pexidartinib]
inhibition at 1 µM [1]: 13% | inhibition at 1 µM [2, 13]: 51% | inhibition at 1 µM [3]: 0.273% | inhibition at 1 µM [4]: -0.918% | inhibition at 1 µM [5]: 0.233% | inhibition at 1 µM [6]: 4.22% | inhibition at 1 µM [7]: -10% | inhibition at 1 µM [8]: 1.65% | inhibition at 1 µM [9]: 84% | inhibition at 1 µM [10]: 7% | inhibition at 1 µM [11]: -2.25% | inhibition at 1 µM [12]: 6%

CO[C@]1(C(=O)N[C@@H](C)c2ccc(-n3cc(F)cn3)nc2)CC[C@H](c2nc(C)cc(Nc3cc(C)[nH]n3)n2)CC1 [pralsetinib]
inhibition at 1 µM [1]: 32% | inhibition at 1 µM [2, 13]: 98% | inhibition at 1 µM [3]: 42% | inhibition at 1 µM [4]: 7.4% | inhibition at 1 µM [5]: 1.29% | inhibition at 1 µM [6]: 2.58% | inhibition at 1 µM [7]: 8% | inhibition at 1 µM [8]: 52% | inhibition at 1 µM [9]: 98% | inhibition at 1 µM [10]: 5.54% | inhibition at 1 µM [11]: 1.23% | inhibition at 1 µM [12]: -0.586%

CCn1c(=O)c(-c2cc(NC(=O)Nc3ccccc3)c(F)cc2Br)cc2cnc(NC)cc21 [ripretinib]
inhibition at 1 µM [1]: 1% | inhibition at 1 µM [2, 13]: 99% | inhibition at 1 µM [3]: 1.15% | inhibition at 1 µM [4]: -0.18% | inhibition at 1 µM [5]: -1.2% | inhibition at 1 µM [6]: 1.06% | inhibition at 1 µM [7]: -6% | inhibition at 1 µM [8]: 101% | inhibition at 1 µM [9]: 90% | inhibition at 1 µM [10]: 2.19% | inhibition at 1 µM [11]: -2% | inhibition at 1 µM [12]: 0.403%

COc1ccc(CN2C3CC2CN(c2ccc(-c4cc(OCC(C)(C)O)cn5ncc(C#N)c45)cn2)C3)cn1 [selpercatinib]
inhibition at 1 µM [1]: 19% | inhibition at 1 µM [2, 13]: 77% | inhibition at 1 µM [3]: 14% | inhibition at 1 µM [4]: 2% | inhibition at 1 µM [5]: -0.275% | inhibition at 1 µM [6]: -0.445% | inhibition at 1 µM [7]: 0.94% | inhibition at 1 µM [8]: 58% | inhibition at 1 µM [9]: 89% | inhibition at 1 µM [10]: 6.63% | inhibition at 1 µM [11]: -1.54% | inhibition at 1 µM [12]: 12%

Cn1cnc2c(F)c(Nc3ccc(Br)cc3Cl)c(C(=O)NOCCO)cc21 [selumetinib]
inhibition at 1 µM [1]: 5% | inhibition at 1 µM [2, 13]: 8% | inhibition at 1 µM [3]: 12% | inhibition at 1 µM [4]: 9% | inhibition at 1 µM [5]: 2.83% | inhibition at 1 µM [6]: 2.44% | inhibition at 1 µM [7]: 1.47% | inhibition at 1 µM [8]: -2.57% | inhibition at 1 µM [9]: 4.73% | inhibition at 1 µM [10]: 8% | inhibition at 1 µM [11]: 2.4% | inhibition at 1 µM [12]: -1.18%

Cc1cc(Nc2ncnc3ccc(NC4=NC(C)(C)CO4)cc23)ccc1Oc1ccn2ncnc2c1 [tucatinib]
inhibition at 1 µM [1]: 7% | inhibition at 1 µM [2]: 20% | inhibition at 1 µM [3]: 6.34% | inhibition at 1 µM [4]: 2.8% | inhibition at 1 µM [5]: -1.34% | inhibition at 1 µM [6]: 0.869% | inhibition at 1 µM [7]: 3.37% | inhibition at 1 µM [8]: -2.34% | inhibition at 1 µM [9]: 9% | inhibition at 1 µM [10]: 3.57% | inhibition at 1 µM [11]: -2.79% | inhibition at 1 µM [12]: -3%

C=CC(=O)N1CCC([C@@H]2CCNc3c(C(N)=O)c(-c4ccc(Oc5ccccc5)cc4)nn32)CC1 [zanubrutinib]
inhibition at 1 µM [1]: 4.66% | inhibition at 1 µM [2, 13]: 67% | inhibition at 1 µM [3]: 11% | inhibition at 1 µM [4]: -0.59% | inhibition at 1 µM [5]: -3.24% | inhibition at 1 µM [6]: 0.363% | inhibition at 1 µM [7]: -1.41% | inhibition at 1 µM [8]: -0.204% | inhibition at 1 µM [9]: 3% | inhibition at 1 µM [10]: -0.467% | inhibition at 1 µM [11]: 0.514% | inhibition at 1 µM [12]: 0.115%
